# Test: Time-dependent IVM partitioning into the CHO cell membrane (removal from aqueous phase, absorbance at 245 nm)
# Assay type: physicochemical, Chinese hamster
# Conditions: 4 μM IVM, 140,000 CHO cells in 1 ml
# Protocol: Figure 7 Recovery of ACh-evoked currents in the absence or presence of IVM. […] (B) Representative currents for the same experiment as in A, but with IVM (0.5 μM) added after peak IP1. Currents in A and B were measured at −60 mV. […] Red bars correspond to ACh-elicited currents where IVM was added as in panel B (N = 5). Error bars correspond to SEM. Asterisks correspond to unpaired, two-tailed Student’s t-tests with 0.001 < *P < 0.05, 0.0001 < **P < 0.001 and ***P < 0.0001. (D) Fractional removal of IVM from the aqueous phase of a 1-ml solutions containing 140,000 CHO cells and 4 μM IVM. Removal of IVM was determined following the indicated incubation times by measuring the absorbance of supernatants at 245 nm wavelength (e.g., Supplementary Fig. S3; Supplementary Materials and Methods). Note that, no IVM removal is indicated at the top of the y-axis. […]
# To assess the IVM partitioning into the CHO cell plasma membrane during a short time period, we followed the procedure of Silberberg et al.[58] with a few modifications accounting for our experimental conditions. To this end, we incubated 140,000 CHO cells (correspond to 3.2 μM plasma membrane lipids[121]) with 4 μM IVM for either 0, 15 or 300 seconds, pelleted the cells by a brief centrifugation (30 seconds), and analyzed the extent of IVM removal from the aqueous solution (elaborated in the Supplementary Materials and Methods). […]
smiles,measurement,setting,value
"CC[C@H](C)[C@H]1O[C@]2(CC[C@@H]1C)C[C@@H]1C[C@@H](C/C=C(\C)[C@@H](O[C@H]3C[C@H](OC)[C@@H](O[C@H]4C[C@H](OC)[C@@H](O)[C@H](C)O4)[C@H](C)O3)[C@@H](C)/C=C/C=C3\CO[C@@H]4[C@H](O)C(C)=C[C@@H](C(=O)O1)[C@]34O)O2 [IVM, Ivermectin]",IVM removed from the aqueous solution by the CHO cells,15 seconds of incubation,no statistically significant amount
same,IVM removed from the aqueous solution by the CHO cells,5 minutes of incubation,~24%
